Measurements reported in patent US11034735B2, “Hybrid peptide, set of hybrid peptides, composition, uses of the hybrid peptide, method for inducing an immune response and kits” (priority 2017, dated 2021).

How the values were obtained:
serum of BALB/c mice = test: Dot-ELISA, synthetic peptides with serum of immunized BALB/c mice; format: in vivo; parameters: key to Peptide Reactivity, Mice serum inoculated with isolated peptides 1 / Peptide Reactivity, Mice serum inoculated with isolated peptides 2 / Peptide Reactivity, Mice serum inoculated with isolated peptides 3 / Peptide Reactivity, Mice serum inoculated with pool / Peptide Reactivity, Mice serum inoculated with Saline (Negative Control) / Reaction with pool of peptides, Mouse 1 serum / Reaction with pool of peptides, Mouse 2 serum / Reaction with pool of peptides, Mouse 3 serum: — = Did not react; X = Reacted; conditions: for Peptide Reactivity, Mice serum inoculated with pool / Peptide Reactivity, Mice serum inoculated with isolated peptides 1 / Peptide Reactivity, Mice serum inoculated with isolated peptides 2 / Peptide Reactivity, Mice serum inoculated with isolated peptides 3 / Peptide Reactivity, Mice serum inoculated with Saline (Negative Control) / Reaction with pool of peptides, Mouse 1 serum / Reaction with pool of peptides, Mouse 2 serum / Reaction with pool of peptides, Mouse 3 serum: Dot-ELISA; for Peptide Reactivity, Mice serum inoculated with pool / Peptide Reactivity, Mice serum inoculated with isolated peptides 1 / Peptide Reactivity, Mice serum inoculated with isolated peptides 2 / Peptide Reactivity, Mice serum inoculated with isolated peptides 3 / Peptide Reactivity, Mice serum inoculated with Saline (Negative Control) / Dot-ELISA reaction of sera from mice inoculated with hybrid peptides alone / Dot-ELISA reaction of mouse sera inoculated with the peptide pool: peptide as antigen; for Peptide Reactivity, Mice serum inoculated with pool: mice inoculated with pool of all 8 hybrid peptides; for Peptide Reactivity, Mice serum inoculated with isolated peptides 1: serum of mouse 1 inoculated with the same isolated peptide; for Peptide Reactivity, Mice serum inoculated with isolated peptides 1 / Peptide Reactivity, Mice serum inoculated with isolated peptides 2 / Peptide Reactivity, Mice serum inoculated with isolated peptides 3: serum 1:25; for Peptide Reactivity, Mice serum inoculated with isolated peptides 2: serum of mouse 2 inoculated with the same isolated peptide; for Peptide Reactivity, Mice serum inoculated with isolated peptides 3: serum of mouse 3 inoculated with the same isolated peptide; for Peptide Reactivity, Mice serum inoculated with Saline (Negative Control): serum of saline-inoculated mice; for Reaction with pool of peptides, Mouse 1 serum / Reaction with pool of peptides, Mouse 2 serum / Reaction with pool of peptides, Mouse 3 serum: pool of peptides as antigen; for Reaction with pool of peptides, Mouse 1 serum: serum of mouse 1 inoculated with the labelled peptide; for Reaction with pool of peptides, Mouse 2 serum: serum of mouse 2 inoculated with the labelled peptide; for Reaction with pool of peptides, Mouse 3 serum: serum of mouse 3 inoculated with the labelled peptide; for Dot-ELISA reaction of mouse sera inoculated with the peptide pool: pool of all 8 hybrid peptides
Description: (§1) The immunogenicity of each peptide was checked immunizing BALB/c mice, approximately six weeks old, with […] of protein (Machado et al., 1994). The mice were divided into groups of three animals each. The groups were: P28, P41, P42, P44, P50, P51, P53, P54, Pool (mice inoculated with a pool of peptides, in the case with all 8 hybrid peptides) and negative control group. For inoculations, the peptides were emulsified in Freund's complete adjuvant (Sigma) and inoculated intramuscularly in the quadriceps. Two further immunizations, on the 14th and 28th day after inoculation, were performed using incomplete Freund's adjuvant (Sigma). Each inoculation was carried out using 10 μg/mL of each peptide. Negative control mice were inoculated with sterile saline in place of the peptides and also emulsified in adjuvant. Blood samples were collected by intracardiac puncture on the 10th day after the last immunization and the sera obtained were stored at −20° C. until evaluated by Dot-ELISA and Western-blotting assays.
(§2) Synthetic peptides were used as antigen in the Dot-ELISA technique to verify their ability to react with specific antibodies present in the serum of BALB/c mice, as well as in calf serum, all immunized. The technique was performed as described by Machado et al. (1994), with minor modifications. Briefly, small nitrocellulose discs were cut using a paper punch and each disc arranged in a flat bottom 24-well culture plate well. 4 μg/mL of each synthetic peptide alone, as well as the peptide pool, were deposited on each disc. The discs were dried at room temperature and then blocked for 12 hours at room temperature with […] TBS buffer (0.1 M Tris, 0.1 M NaCl and 0.5% Tween 20; TBS-Tween 20), plus 5% skim milk powder. Test sera were diluted 1:25 (mice and calf) in TBS-Tween 20 containing 5% skim milk powder and incubated for 120 minutes at room temperature and under constant stirring. Then the discs were subjected to two washes with TBS-Tween 20 plus 5% skim milk powder and one wash with TBS-Tween 20 (5 min interval between each wash). To each mouse serum disc was added the alkaline phosphate-coupled anti-mouse conjugate (anti-mouse IgG goat IgG, Sigma A-3562) diluted 1:30,000 in TBS-Tween 20 plus 5% of skim milk powder. To calf serum-containing discs, it was added alkaline phosphate-coupled anti-bovine conjugate (anti-cattle IgG rabbit IgG, Sigma A-0705) diluted 1:30,000 in TBS-Tween 20, plus 5% skim milk powder. After one hour incubation with the appropriate conjugates, washes were followed as in the previous step.

calf serum [1] = test: Dot-ELISA, synthetic peptides with serum of calf immunized with peptide pool; format: in vivo; parameters: key to Peptide Reactivity, Calf serum inoculated with pool: — = Did not react; X = Reacted; conditions: for Peptide Reactivity, Calf serum inoculated with pool: Dot-ELISA, peptide as antigen, calf inoculated with pool SEQ ID NO: 20, 21, 23, 25, 26; for Dot-ELISA reaction of calf serum inoculated with the peptide pool with the antigen: label = antigen on disc
Description: (§3) The immunogenicity of the synthetic peptides was verified by immunizing a previously tested calf with negative results for Anaplasma marginale, Babesia bovis and Babesia bigemina by serology and PCR. For inoculations, a peptide pool (SEQ ID NO: 20, SEQ ID NO: 21, SEQ ID NO: 23, SEQ ID NO: 25 and SEQ ID NO: 26) was emulsified in Freund's complete adjuvant (Sigma) and, inoculated intramuscularly in the quadriceps. Two further immunizations, on the 14th and 28th day after inoculation, were performed using incomplete Freund's adjuvant (Sigma). Each inoculation was done using 100 μg/mL of each peptide. Blood samples were collected by jugular puncture on the 10th day after the last immunization and the sera obtained were stored at −20° C. until evaluated by Dot-ELISA and Western-blotting assays.
as §2

[2] = tested on: bovine serum serologically positive / negative / vaccinated for A. marginale; test: Dot-ELISA, synthetic peptides with sera of cattle serologically positive, negative or vaccinated for A. marginale; format: binding; conditions: peptide as antigen
Description: as §2

calf serum [3] = test: Western blotting, synthetic peptides with calf serum; format: in vivo; conditions: label = antigen on blot
Description: as §3
(§4) Samples of synthetic peptides were analyzed by Western blotting. To this end, initially, the samples were submitted to polyacrylamide gel electrophoresis under denaturing conditions, according to the technique recommended by Laemmli (1970). Based on the sample volume 2× concentrated sample buffer (250 mM Tris-HCl pH 6.8, 40% glycerol, 8% SDS, 20% β-mercaptoethanol and 0.008% bromophenol blue) was added. The samples were homogenized, incubated for 5 minutes at 100° C. and applied to the gel. The separation gel was prepared at a concentration of 12% polyacrylamide in buffer (1.875 M Tris, pH 8.8 and 1% SDS) and 5% polyacrylamide for buffer packaging gel (1.875 M Tris, pH 6.8 and 0.5% SDS). Electrophoresis was performed in Tris-Glycine Running Buffer (50 mM Tris, pH 8.6, 1.92 M Glycine and 1% SDS) at 100 V for up to 3 hours and 30 minutes at 0° C. in the Mini-Protean II system (Bio-Rad).
Synthetic peptides processed on the polyacrylamide gel (SDS-PAGE) were transferred to the nitrocellulose membrane for analysis by Wester blot (TOWBIN et al., 1979). The nitrocellulose membrane (Merck) was previously incubated in ice cold transfer buffer (0.58% Tris Base pH 8.3, 20% methanol and 0.29% glycine). For this, the membrane was placed in the “Mini Trans-Blot” (Bio-Rad) electrotransfer system containing the same buffer and the transfer was performed at 100 V for 90 minutes. The membrane was incubated in TBS-Tween (10 mM Tris-HCl pH 7.5; 150 mM NaCl, 0.05% Tween-20) plus 5% skim milk powder for 12 hours at 4° C. under low agitation, for saturation of non-specific binding sites. The membrane was then incubated with each serum from each mouse alone or incubated with calf serum for 2 hours at room temperature under slow stirring. It was then subjected to three consecutive 10-minute washes with the same solution under slow agitation. […]

mouse serum = test: Western blotting, synthetic peptides with serum of inoculated mice; conditions: in vivo
Description: as §1, §4
Synthetic peptides processed on the polyacrylamide gel (SDS-PAGE) were transferred to the nitrocellulose membrane for analysis by Wester blot (TOWBIN et al., 1979). The nitrocellulose membrane (Merck) was previously incubated in ice cold transfer buffer (0.58% Tris Base pH 8.3, 20% methanol and 0.29% glycine). For this, the membrane was placed in the “Mini Trans-Blot” (Bio-Rad) electrotransfer system containing the same buffer and the transfer was performed at 100 V for 90 minutes. The membrane was incubated in TBS-Tween (10 mM Tris-HCl pH 7.5; 150 mM NaCl, 0.05% Tween-20) plus 5% skim milk powder for 12 hours at 4° C. under low agitation, for saturation of non-specific binding sites. The membrane was then incubated with each serum from each mouse alone or incubated with calf serum for 2 hours at room temperature under slow stirring. […]

Sequence	Peptide Reactivity, Mice serum inoculated with pool (serum of BALB/c mice)	Peptide Reactivity, Mice serum inoculated with isolated peptides 1 (serum of BALB/c mice)	Peptide Reactivity, Mice serum inoculated with isolated peptides 2 (serum of BALB/c mice)	Peptide Reactivity, Mice serum inoculated with isolated peptides 3 (serum of BALB/c mice)	Peptide Reactivity, Mice serum inoculated with Saline (Negative Control) (serum of BALB/c mice)	Reaction with pool of peptides, Mouse 1 serum (serum of BALB/c mice)	Reaction with pool of peptides, Mouse 2 serum (serum of BALB/c mice)	Reaction with pool of peptides, Mouse 3 serum (serum of BALB/c mice)	Dot-ELISA reaction of sera from mice inoculated with hybrid peptides alone (serum of BALB/c mice)	Peptide Reactivity, Calf serum inoculated with pool (calf serum [1])	Dot-ELISA reaction of calf serum inoculated with the peptide pool with the antigen (calf serum [1])	Reaction of sera from serologically positive cattle for A. marginale with synthetic peptide [2]	Reaction of sera from vaccinated cattle for A. marginale with synthetic peptide [2]	Western blotting reactivity of calf serum inoculated with the peptide pool (calf serum [3])	Western blotting reaction of serum of mice inoculated with synthetic peptide (mouse serum)	Dot-ELISA reaction of mouse sera inoculated with the peptide pool (serum of BALB/c mice)
GASTDDAAAAAKIVAMAYGRGGGGGASSVDALTATKLVAAALGH (Synthetic hybrid peptide) [P44]	—	X	X	X	—	—	—	—	reacted	X	reacted	reacted	reacted	showed reactivity	reacted	
SSVSSQSDQASTSSQLGGGGAMGDSVHWKVKPVDNKLFIMP (Synthetic hybrid peptide) [P41]	—	—	—	—	—	—	—	—		X	reacted			showed reactivity		
SKVASVEYILAARGGGGQVDRLANALGKGGGGAMGDSVHWKVKPVDNKLFIMP (Synthetic hybrid peptide) [P53]	X	—	—	—	—	X	X	X		X	reacted	reacted		showed reactivity	reacted	reacted
LAESTEGNLEEVWILGKGGGGFSESMKALIKKYVDTSKPTIYVDQGTVMKV (Synthetic hybrid peptide) [P51]	X	—	X	X	—	—	X	—	reacted	X	reacted			showed reactivity		reacted
SKVASVEYILAARGGGGQVDRLANALGK (Synthetic hybrid peptide) [P28]	—	—	—	—	—	—	X	—		—		reacted	reacted			reacted
SECVSLQPTDSSSASGQQQEGGGGLQGHMIDAVLETAINSDIPGVLRAIVSRDV (Synthetic hybrid peptide) [P54]	X	X	X	X	—	—	X	—	reacted	—		reacted			reacted	reacted
